Measurements taken from patent publication US20080318891A1, “Antisense oligonucleotides against thymidylate synthase” (priority 1998, published 2008).

Test system: TS protein
Experiment: TS binding assay ([6-3H]5-FdUMP binding) in HeLa cell lysates
Format: cell-based, human
Details: HeLa cells, different times following transfection
Description: 5-FdUMP binding was measured in cells transfected with ODN 83 (hatched bars) or ODN 32 (open bars) at different times following transfection. (A) Results are plotted as a percent of 5-FdUMP binding in cells transfected with control ODN 32±SE (n=5). The values for ODN 32 (n=5) were normalized to 100% and are shown without error bars. […] Error bars indicate errors calculated according to a Student t-test, and indicate error due to differences in experimental conditions in 5 measurements taken on different days, and differences due to transfection with different ODNs. The asterisks indicate significant differences (p<0.02) determined by using a paired Student t-test.
TS binding assay: Cellular content of TS was assayed by binding of [6-^3H]5-FdUMP. […] The assay was performed using cells that were treated with antisense ODN 83 or the scrambled control ODN 32. Briefly, cells were harvested by scraping into PBS and resuspending the subsequent pellet in 100 mM KH2PO4 (pH 7.4). […] The total protein concentration was determined using Coomassie staining (BioRad reagent) (MI) in order to express results as pmol 5-FdUMP bound per mg total protein. 5-FdUMP binding was assessed in paired lysates from cells transfected with ODN 83 or ODN 32, in separate incubation reactions carried out on different days; however, pairs were always assessed together under the same reaction conditions. […]

Substance: ODN 32: scrambled control, randomised sequence of ODN 83, 5′-ATGCGCCAACGGTTCCTAAA-3′ (all phosphorothioate, sugars by position and methylation of C not given here; further chemistry not fully specified) [reference compound]
- TS protein levels (inferred by 5-FdUMP binding): no significant effect
